Measured values: patent US20180228780A1, “3-(1H-PYRROLO[2,3-C]PYRIDIN-2-YL)-1H-INDAZOLES AND THERAPEUTIC USES THEREOF” (Samumed, LLC, priority 2015, published 2018)
pEC50: −log10 of the molar value.

Assays:
Type in all cases: cell-based
[1] = test system: Wnt activity (Sp5-Luc reporter, SW480 colon carcinoma cells); experiment: Screening assay for Wnt activity: Sp5-Luc reporter gene assay in SW480 cells; details: Homo sapiens; for pEC50: SW480 Sp5-Luc reporter, overnight incubation
Procedure, shortened: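 SW480 colon carcinoma cells stably carrying Sp5 promoter (eight TCF/LEF sites)-driven firefly luciferase, plated at 4,000 cells/well in 1% FBS medium and incubated overnight at 37° C. Luminescence normalised to DMSO-only cells; EC50 from four-parameter variable-slope nonlinear regression.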

[2] = test system: primary human mesenchymal stem cells (hMSCs); experiment: Induction of chondrogenesis in hMSCs (nodule imaging, Rhodamine B / Nile Red); details: 6 days; for EC50: concentration required to induce 50% levels of chondrogenesis vs TGF-β3, read-out: Conc (nM) of 50% TGF-β3 activity; for Emax: relative to TGF-β3 (10 ng/mL) positive control, read-out: Max. Activity as % TGF-β3 activity
Procedure, shortened: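 Primary hMSCs at passage 3-6 were treated with compound; nodule area per well was normalized to the mean of 3 DMSO wells, averaged over 2-3 replicates, and the concentration giving 50% chondrogenesis relative to TGF-β3 control, plus maximum activity and its dose, was derived.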

IL-6 (THP-1 cells) = experiment: IL-6 inhibition in THP-1 monocytes (HTRF); details: Homo sapiens; for pEC50: IL-6 inhibition, THP-1 cells, HTRF, 10-point dose-response starting from 10 μM
Procedure, shortened: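 THP-1 cells serum-reduced (1% FBS, 24 h), plated 5000/well, stimulated with 500 ng/mL […] after 2 h and incubated a further 22 h at 37 °C. Secreted IL-6 quantified by HTRF (665/620 nm ratio), normalized to DMSO; EC50 from four-parameter fit, duplicates.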

[3] = test system: Primary human fibroblasts derived from IPF patients (LL29 cells); experiment: Inhibition of the fibrotic process: αSMA staining in TGF-β1-treated LL29 fibroblasts; details: Fibroblast; for pEC50: 96 h, LL29 cells, TGF-β1 20 ng/mL, 4 days, % αSMA-positive cells
Procedure, shortened: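 LL29 IPF-patient lung fibroblasts plated in F12 with 1% FBS, treated with TGF-β1 plus compound; TGF-β1/DMSO wells served as controls. After 4 days incubation, SYTOX green (1 μM final) added for 30 min at room temperature; αSMA staining used as fibrosis read-out.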

SW480 colon cancer cells = experiment: Cell viability assay (CellTiter-Blue) in SW480 colon cancer cells; details: Homo sapiens; for pEC50: 96 h, SW480 cell viability, four days incubation; for inhibition at 10 µM: SW480, read-out: percent inhibition at 10 μM
Procedure, shortened: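 Fluorescence from resazurin reduced to resorufin by metabolically active cells was the read-out, taken after ~3 h with CellTiter-Blue.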

Structure (SMILES) | pEC50 [1] | EC50 [2] [nM] | pEC50 (IL-6 (THP-1 cells)) | pEC50 (SW480 colon cancer cells) | inhibition at 10 µM ([1]; SW480, read-out: percent inhibition at 10 μM) [%] | Emax [2] [%] | pEC50 [3] | inhibition at 10 µM (SW480 colon cancer cells) [%] | inhibition at 10 µM (IL-6 (THP-1 cells); THP-1, read-out: percentage in parentheses printed under EC50 >10) [%] | inhibition at 10 µM ([3]; read-out: percent inhibition at 10 μM) [%]
CCCC(=O)Nc1cncc(-c2ccc3[nH]nc(-c4cc5c(-c6ccncc6)cncc5[nH]4)c3c2)c1 [Compound 129, N-(5-(3-(4-(Pyridin-4-yl)-1H-pyrrolo[2,3-c]pyridin-2-yl)-1H-indazol-5-yl)pyridin-3-yl)butyramide] | < 5.00 | 100 | 5.99 | < 5.00 | 25.5 | 124 | 5.21 | 15.5 |  | 
c1ncc(-c2ccc3[nH]nc(-c4cc5c(N6CCCCC6)cncc5[nH]4)c3c2)cc1CN1CCCC1 [Compound 182, 3-(4-(Piperidin-1-yl)-1H-pyrrolo[2,3-c]pyridin-2-yl)-5-(5-(pyrrolidin-1-ylmethyl)pyridin-3-yl)-1H-indazole] | 5.74 |  | 6.30 | 5.36 |  | 25 | 5.62 |  |  | 
c1cc2cc(-c3n[nH]c4ccc(-c5cncc(CNCC6CCCC6)c5)cc34)[nH]c2cn1 [Compound 277, 1-(5-(3-(1H-Pyrrolo[2,3-c]pyridin-2-yl)-1H-indazol-5-yl)pyridin-3-yl)-N-(cyclopentylmethyl)methanamine] | 5.84 |  | 7.51 | 5.86 |  | 49 | 5.86 |  |  | 
CN1CCN(c2cncc3[nH]c(-c4n[nH]c5ccc(-c6cncc(NC(=O)CC(C)(C)C)c6)cc45)cc23)CC1 [Compound 240, 3,3-Dimethyl-N-(5-(3-(4-(4-methylpiperazin-1-yl)-1H-pyrrolo[2,3-c]pyridin-2-yl)-1H-indazol-5-yl)pyridin-3-yl)butanamide] | 5.46 |  | 6.30 | 5.35 |  | 31 | 5.58 |  |  | 
CN1CCN(c2cncc3[nH]c(-c4n[nH]c5ccc(-c6cncc(N)c6)cc45)cc23)CC1 [Compound 227, 5-(3-(4-(4-Methylpiperazin-1-yl)-1H-pyrrolo[2,3-c]pyridin-2-yl)-1H-indazol-5-yl)pyridin-3-amine] | 5.08 | 30 | < 5.00 | < 5.00 |  | 51 | 5.27 | 37.2 | 48.5 | 
c1cc(-c2cncc3[nH]c(-c4n[nH]c5ccc(-c6cncc(CN7CCCC7)c6)cc45)cc23)ccn1 [Compound 126, 3-(4-(Pyridin-4-yl)-1H-pyrrolo[2,3-c]pyridin-2-yl)-5-(5-(pyrrolidin-1-ylmethyl)pyridin-3-yl)-1H-indazole] | 5.47 |  | 5.67 | 5.64 |  | 48 | 5.83 |  |  | 
CN(C)c1cncc(-c2ccc3[nH]nc(-c4cc5c(-c6ccoc6)cncc5[nH]4)c3c2)c1 [Compound 315, 5-(3-(4-(Furan-3-yl)-1H-pyrrolo[2,3-c]pyridin-2-yl)-1H-indazol-5-yl)-N,N-dimethylpyridin-3-amine] | 5.84 | 300 | 6.30 | 6.25 |  | 69 | 5.82 |  |  | 
c1ccc(CNCc2cncc(-c3ccc4[nH]nc(-c5cc6c(-c7cccs7)cncc6[nH]5)c4c3)c2)cc1 [Compound 360] | 6.24 | 10 | 7.24 | 6.08 |  | 57 | 6.73 |  |  | 

These reach a higher pEC50 [1]. Values come first.

pEC50 [1] | EC50 [2] [nM] | pEC50 (IL-6 (THP-1 cells)) | pEC50 (SW480 colon cancer cells) | Structure (SMILES) | inhibition at 10 µM ([1]; SW480, read-out: percent inhibition at 10 μM) [%] | Emax [2] [%] | pEC50 [3] | inhibition at 10 µM (SW480 colon cancer cells) [%] | inhibition at 10 µM (IL-6 (THP-1 cells); THP-1, read-out: percentage in parentheses printed under EC50 >10) [%] | inhibition at 10 µM ([3]; read-out: percent inhibition at 10 μM) [%]
7.35 | 900 | 7.77 | 7.17 | O=C(Nc1cncc(-c2ccc3[nH]nc(-c4cc5c(-c6cccc(F)c6)cncc5[nH]4)c3c2)c1)C1CC1 [Compound 20, N-(5-(3-(4-(3-Fluorophenyl)-1H-pyrrolo[2,3-c]pyridin-2-yl)-1H-indazol-5-yl)pyridin-3-yl)cyclopropanecarboxamide] |  | 94 | 6.91 |  |  | 
7.07 | 10 | 7.85 | 6.93 | O=C(Nc1cncc(-c2ccc3[nH]nc(-c4cc5c(-c6cccs6)cncc5[nH]4)c3c2)c1)C1CC1 [Compound 356, N-(5-(3-(4-(Thiophen-2-yl)-1H-pyrrolo[2,3-c]pyridin-2-yl)-1H-indazol-5-yl)pyridin-3-yl)cyclopropanecarboxamide] |  | 156 | 7.08 |  |  | 
6.59 |  | 6.61 | 6.23 | CC(C)C(=O)Nc1cncc(-c2ccc3[nH]nc(-c4cc5c(-c6cccnc6)cncc5[nH]4)c3c2)c1 [Compound 93, N-(5-(3-(4-(Pyridin-3-yl)-1H-pyrrolo[2,3-c]pyridin-2-yl)-1H-indazol-5-yl)pyridin-3-yl)isobutyramide] |  | 34 | 6.76 |  |  | 
6.51 | 100 | 6.98 | 6.31 | c1cncc(-c2ccc3[nH]nc(-c4cc5c(-c6cccnc6)cncc5[nH]4)c3c2)c1 [Compound 88, 5-(Pyridin-3-yl)-3-(4-(pyridin-3-yl)-1H-pyrrolo[2,3-c]pyridin-2-yl)-1H-indazole] |  | 58 | < 5.00 |  |  | 0
